# In article PMC4882560, “Polyketides from the Mangrove-Derived Endophytic Fungus Nectria sp. HN001 and Their α-Glucosidase Inhibitory Activity” (Marine Drugs, 2016):
# Target: α-Glucosidase from Saccharomyces cerevisiae
# Test: In vitro α-glucosidase inhibitory activity (UV absorbance at 405 nm, p-nitrophenyl glycoside substrate)
# Type: biochemical
# Details: for IC50: mean ± SD from three parallel measurements, phosphate buffer pH 7.0, 37 °C, absorbance at 405 nm, read-out: IC50, inhibitory effects against α-glucosidase; for α-glucosidase inhibitory activity (result in words): compared to positive control acarbose
# Experimental: Optical rotations were measured on a Bellingham-Stanley ADP 440+ polarimeter at 25 °C. IR data were recorded on a Nicolet 5DX-FTIR (Thermo Fisher Scientific, Inc., Hudson, NH, USA), in KBr discs. UV data were recorded on a Shimadzu UV-240 spectrophotometer (Shimadzu, Kyoto, Japan). The ^1H NMR (500 MHz), ^13C NMR (125 MHz), and 2D NMR spectra were obtained on a Bruker AVANCE-500 (Bruker BioSpin Corporation, Billerica, MA, USA) using TMS as an internal reference. HRESIMS were acquired on a Thermofisher LTQ Orbitrp Elite LC-MS spectrometer (Thermo Fisher Scientific, Inc., Hudson, NH, USA), and the ESIMS data were measured on a Micro Mass Q-TOF spectrometer (Waters Corporation, Milford, MA, USA). TLC analysis was carried out on silica gel plates (Marine Chemical Ltd., Qingdao, China). RP-C18 silica gel (Fuji, 40–75 μm, Fuji Silysia Chemical Ltd., Kasugai, Japan), Silica gel (200–300 mesh, Marine Chemical Ltd., Qingdao, China), High silica gel (H, Marine Chemical Ltd., Qingdao, China), and Sephadex LH-20 (GE Healthcare Bio-Sciences AB, Stockholm, Sweden) were used for column chromatography (CC).
# An assay of α-glucosidase inhibitory activity was performed using a reported method, with slight modifications. All the assays were performed using 0.01 M KH2PO4-K2HPO4 buffers, pH 7.0, and a Bio-Rad iMark microplate reader (Bio-Rad Laboratories, Inc., Kyoto, Japan). Enzyme solution was prepared to give 2.0 Units/mL in 2 mL aliquots. The assay medium contained phosphate buffer, pH 7.0 (130 μL), 10 μL of enzyme solution, 20 μL of DMSO or inhibitor (dissolved in DMSO), and 40 μL of substrate (p-nitrophenyl glycoside, 3 mg/mL). The substrate was added to the assay medium containing enzyme and buffer with inhibitor added after 15 min of incubation time at 37 °C. The activity was determined by measuring the increase in absorbance at 405 nm for a 1 min interval. Calculations were performed according to the equation: η (%) = [(B − S)/B] × 100%
# (B stands for the assay medium with DMSO; S stands for the assay medium with inhibitor). All measurements were done in triplicate from two independent experiments. The reported IC50 was the average value of two independent experiments.
IC50 [µM],α-glucosidase inhibitory activity (result in words),Structure (SMILES)
121.8 ± 0.4,–,"CC(/C=C/C(=O)O)=C\C=C\C(C)=C\C(C)=C\C(=O)O [Compound 1, 2E, 4E, 6E, 8E, 10E-3,5,9-trimethyldodeca-2,4,6,8, 10-pentaenedioic acid]"
23.5 ± 0.3,significant inhibitory activity,"COC(=O)/C=C/C(C)=C/C=C/C(C)=C/C(C)=C/C(=O)O [Compound 2, 2E, 4E, 6E, 8E, 10E-12-methoxy-3,5,9-trimethyl-12-oxododeca-2,4,6,8, 10-pentaenoic acid]"
42.3 ± 0.2,significant inhibitory activity,"COC(=O)/C=C/C(C)=C/C=C/C(C)=C\C(C)=C\C(=O)O [Compound 3, 2E, 4Z, 6E, 8E, 10E-12-methoxy-3,5,9-trimethyl-12-oxododeca-2,4,6,8, 10-pentaenoic acid]"
343.7 ± 1,–,"C[C@H](O)C[C@@H](O)Cc1cc2cc(O)cc(O)c2c(=O)o1 [Compound 4, 12-epicitreoisocoumarinol]"
392.5 ± 1.7,–,"C[C@@H](O)C[C@@H](O)Cc1cc2cc(O)cc(O)c2c(=O)o1 [Compound 5, citreoisocoumarinol]"
538.7 ± 4.3,–,"CC(=O)C[C@@H](O)Cc1cc2cc(O)cc(O)c2c(=O)o1 [Compound 6, citreoisocoumarin]"
> 900,did not display inhibitory activity,"Cc1cc(=O)cc(Cc2cc(O)cc(O)c2)o1 [Compound 7, macrocarpon C]"
